Holding throughout (assay type): biochemical
One assay concerns the target lysine gingipain (Kgp) (Porphyromonas gingivalis (Bacteroides gingivalis), UniProt P72194). Put plainly: biochemical. Here is the method: The specific assay conditions were as follows. Buffer: pH=7.5, 100 mM Tris-HCl, 75 mM NaCl, 2.5 mM CaCl2), 10 mM cysteine, 1% DMSO after all additions. Protein: 0.1 nM Kgp, isolated from culture of Porphyromonas gingivalis, as described by Pike et al. (J. Biol. Chem. 1994, 269(1), 406), and Potempa and Nguyen (Current Protocols in Protein Science. 2007, 21.20.1-21.20.27). Fluorogenic substrate: 10 μM Z-His-Glu-Lys-MCA. Time=90 minutes. Temperature=37° C.
(§1) Further assays to measure the inhibitory activity of compounds of the present invention against Kgp and cathepsins B, H, K, L, and S were conducted as described in Example 66. The capacities of the compounds to inhibit the activity of cathepsins F, V, and Z were also measured.

The target of a further assay is Cathepsin B (Homo sapiens (Human), UniProt P07858). Put plainly: Cathepsin B inhibition assay. Particulars: read-out: IC50 (nM) CatB. Here is the method: (§2) The capacities of compounds of the present invention to inhibit the activity of cathepsins B, H, K, L, and S were measured in similar assays. Boc-Leu-Arg-Arg-AMC (20 μM) in sodium acetate buffer (50 mM, pH 5.5) containing DTT (1 mM) and EDTA (2 mM) was used for the Cathepsin B assay. L-Arg-AMC (20 μM) in sodium acetate buffer (50 mM, pH 5.5) containing DTT (1 mM) and EDTA (2 mM) was used for the Cathepsin H assay. Z-Phe-Arg-AMC (10 μM) in HEPES buffer (50 mM, pH 7.4) containing DTT (2.5 mM) and EDTA (1 mM) was used for the Cathepsin K assay. Z-Phe-Arg-AMC (20 μM) in sodium acetate buffer (50 mM, pH 5.5) containing DTT (1 mM) and EDTA (2 mM) was used for the Cathepsin L assay. Z-Leu-Arg-AMC (10 μM) in sodium acetate buffer (25 mM, pH 4.5) containing DTT (2.5 mM) and NaCl (50 mM) was used for the Cathepsin S assay. The capacities of the compounds to inhibit the activity of cathepsins F, V, and Z were also measured.
as §1

The target of the next assay is Cathepsin S (Homo sapiens (Human), UniProt P25774). Kind of assay: Cathepsin S inhibition assay. The conditions noted are these: read-out: IC50 (nM) CatS. Here is the method: as §2, §1
The target of the next assay is Cathepsin K (Homo sapiens (Human), UniProt P43235). Put plainly: Cathepsin K inhibition assay. Particulars: read-out: IC50 (nM) CatK. On the procedure:
as §2, §1

For a further assay, the target named is Cathepsin L (Homo sapiens (Human), UniProt P07711). Kind of assay: Cathepsin L inhibition assay. Particulars: read-out: IC50 (nM) CatL. On the procedure:
as §2, §1

For another assay, the target named is Cathepsin H (Homo sapiens (Human), UniProt P09668). Kind of assay: Cathepsin H inhibition assay. The conditions noted are these: Table 3; read-out: IC50 (nM) CatH. On the procedure:
as §2, §1

Read-outs that look alike come from different tables or passages of the source.

The source of these data is US10730826B2, “Ketone inhibitors of lysine gingipain” (CORTEXYME, INC., priority 2016, dated 2020).

The compound `NCCCCC(NC(=O)c1ccc(F)nc1)C(=O)COc1c(F)cccc1F` (stereo not drawn) [Compound 29a] registered an IC50 at lysine gingipain (Kgp) (IC50 (nM) Kgp, Table 4) of 0.31 nM.
With `NCCCCC(NC(=O)C1CCCC1)C(=O)COc1cccc(F)c1` (stereo not drawn) [Compound 7a], the IC50 on lysine gingipain (Kgp) (IC50 (nM) Kgp, Table 3) was 1.3 nM; on lysine gingipain (Kgp) (IC50 (nM) Kgp, Table 4) it was 1.3 nM; on Cathepsin B (Table 3), 49600 nM; on Cathepsin B (Table 4), more than 10000 nM; on Cathepsin S (Table 3) it was 24100 nM; on Cathepsin S (Table 4) it was more than 10000 nM. In addition, the IC50 at Cathepsin K (Table 3) is 20200 nM; at Cathepsin K (Table 4) it was more than 10000 nM; on Cathepsin L (Table 3), 5530 nM; on Cathepsin L (Table 4), more than 10000 nM.
`NCCCCC(NC(=O)C1CCCC1)C(=O)COc1cc(F)cc(F)c1F` (stereo not drawn) [Compound 4a]: the IC50 is 0.07 nM on lysine gingipain (Kgp) (IC50 (nM) Kgp, Table 3); 2640 nM at Cathepsin B (Table 3); more than 100000 nM at Cathepsin S (Table 3); more than 100000 nM on Cathepsin K (Table 3); more than 100000 nM on Cathepsin L (Table 3).
At lysine gingipain (Kgp) (IC50 (nM) Kgp, Table 4), `COC(C)(C)C(=O)NC(CCCCN)C(=O)COc1ccon1` (stereo not drawn) [Compound 57a] returned an IC50 of 0.09 nM.
Take `NCCCCC(NC(=O)C1CCCC1)C(=O)COc1ccccc1F` (stereo not drawn) [Compound 3a]: the IC50 was 0.64 nM on lysine gingipain (Kgp) (IC50 (nM) Kgp, Table 3); 52200 nM on Cathepsin B (Table 3); more than 100000 nM at Cathepsin S (Table 3); more than 100000 nM on Cathepsin K (Table 3); more than 100000 nM at Cathepsin L (Table 3).
`NCCCCC(NC(=O)C1CCCC1)C(=O)Cn1cncc(F)c1=O` (stereo not drawn) [Compound 41a]: the IC50 on lysine gingipain (Kgp) (IC50 (nM) Kgp, Table 4) is more than 100 nM.
`NCCCCC(NC(=O)c1cccc(F)c1)C(=O)COc1c(F)cccc1F` (stereo not drawn) [Compound 26a] gave an IC50 on lysine gingipain (Kgp) (IC50 (nM) Kgp, Table 4) of 0.09 nM.
On to `CN(C)c1ccc(/N=N/c2ccc(C(=O)NCc3cc(F)c(OCC(=O)C(CCCCN)NC(=O)c4cccc(N=[N+]=[N-])c4)c(F)c3)cc2)cc1` (stereo not drawn) [Compound 44a], for which the IC50 at lysine gingipain (Kgp) (IC50 (nM) Kgp, Table 4) turned out to be 3.04 nM; against lysine gingipain (Kgp) (Kgp IC50 (nM), Table 5, probe compounds) it was 3 nM.
With `NCCCCC(NC(=O)C1CCCC1)C(=O)COc1cc(F)ccc1F` (stereo not drawn) [Compound 6a], the IC50 was 0.19 nM on lysine gingipain (Kgp) (IC50 (nM) Kgp, Table 3); 20300 nM on Cathepsin B (Table 3); 42800 nM at Cathepsin S (Table 3); more than 100000 nM on Cathepsin K (Table 3); more than 100000 nM on Cathepsin L (Table 3).
Turning to `[N-]=[N+]=Nc1cccc(C(=O)NC(CCCCN)C(=O)COc2c(F)cccc2F)c1` (stereo not drawn) [Compound 12a], the IC50 at lysine gingipain (Kgp) (IC50 (nM) Kgp, Table 3) stood at 0.08 nM.
On lysine gingipain (Kgp) (IC50 (nM) Kgp, Table 4), `COC(C)(C)C(=O)NC(CCCCN)C(=O)COc1cc(C)nc(C)c1` (stereo not drawn) [Compound 63a] displayed an IC50 of 0.09 nM.
On the same count and under the same terms, to `NCCCCC(NC(=O)c1cccnc1F)C(=O)COc1ccon1` (stereo not drawn) [Compound 56a] belongs 0.1 nM; to `CS(C)(=O)=CC(=O)C(CCCCN)NC(=O)C1CCCC1` (stereo not drawn) [Compound 58a], 4.66 nM.
As for `NCCCC[C@H](NC(=O)C1CCCC1)C(=O)COc1c(F)ccc(F)c1F` (racemic) [1a - non-racemic], the IC50 came out at 380 nM at Cathepsin B (Table 3); 29500 nM at Cathepsin S (Table 3); 170 nM on Cathepsin K (Table 3); 4680 nM on Cathepsin L (Table 3); 560 nM on Cathepsin H.
On to `NCCCCC(NC(=O)C1CCCC1)C(=O)COCC(F)(F)F` (stereo not drawn) [Compound 17a], for which, at lysine gingipain (Kgp) (IC50 (nM) Kgp, Table 3), the IC50 was more than 100 nM.
For `COC(C)(C)C(=O)NC(CCCCN)C(=O)COc1cnc(C)nc1` (stereo not drawn) [Compound 65a], the midpoint of inhibition on lysine gingipain (Kgp) (IC50 (nM) Kgp, Table 4), the IC50, lay at 0.16 nM.
Same read-out and setting: to `CN(C)c1ccc(C(=O)NC(CCCCN)C(=O)COc2ccon2)cn1` (stereo not drawn) [Compound 62a] belongs 0.14 nM; to `NCCCCC(NC(=O)c1ccnc(F)c1)C(=O)COc1c(F)cccc1F` (stereo not drawn) [Compound 31a], 0.15 nM.
The same measure, in the same setting: to `NCCCCC(NC(=O)c1cccc(OCCCF)c1)C(=O)COc1c(F)cccc1F` (stereo not drawn) [Compound 30a] belongs 0.21 nM; to `C[N+](C)(C)c1ccc(C(=O)NC(CCCCN)C(=O)COc2ccon2)cn1` (stereo not drawn) [Compound 61a], 0.43 nM.
For the compound `CS(=O)(=O)CC(=O)C(CCCCN)NC(=O)C1CCCC1` (stereo not drawn) [Compound 20a], the IC50 at lysine gingipain (Kgp) (IC50 (nM) Kgp, Table 3) is more than 100 nM.
In the case of `NCCCCC(NC(=O)c1ccncc1)C(=O)COc1c(F)ccc(F)c1F` (stereo not drawn) [Compound 52a], the 50% inhibitory concentration (IC50) at lysine gingipain (Kgp) (IC50 (nM) Kgp, Table 4) was determined as 0.06 nM.
